In patent US10750743B2, “Pyridazinone herbicides” (E.I. DU PONT DE NEMOURS AND COMPANY, priority 2015, dated 2020):

Experiments:
Assay type in all cases: in vivo
[1] = system: sedge, umbrella (small-flower umbrella sedge, Cyperus difformis); test: Test B flooded paddy test, visual rating; settings: Flood, 250 g ai/ha, applied to paddy water, rated after 13 to 15 d
Outline: (§1)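 Ratings use a 0-100 visual scale, where 100 is complete control, and compare treated plants with controls after 13 to 15 d of greenhouse growth. Compound went straight into paddy water kept 3 cm over the soil surface, applied to seedlings at the 2-leaf stage.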

[2] = system: ducksalad (Heteranthera limosa); test: Test B flooded paddy test, visual rating; settings: Flood, 250 g ai/ha, applied to paddy water, rated after 13 to 15 d
Outline: as §1

[3] = system: barnyardgrass (Echinochloa crus-galli); test: Test B flooded paddy test, visual rating; settings: Flood, 250 g ai/ha, applied to paddy water, rated after 13 to 15 d
Outline: as §1

rice (Oryza sativa) = test: Test B flooded paddy test, visual rating; settings: Flood, 250 g ai/ha, applied to paddy water, rated after 13 to 15 d
Outline: as §1

[4] = system: barnyardgrass (Echinochloa crus-galli); test: Test A preemergence, directed soil spray, visual injury rating; settings: 0 is no effect, 100 is complete control
Outline: (§2)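 Injury ratings, 0 (no effect) to 100 (complete control), were scored visually versus untreated plants roughly 10 d after treatment under greenhouse conditions. Treatments used surfactant-containing solvent formulations, sprayed onto soil preemergence or onto one- to two-leaf seedlings (2-10 cm) postemergence, grown in a loam-sand mix.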

kochia (Kochia scoparia) [5] = test: as above; settings: 0 is no effect, 100 is complete control
Outline: as §2

[6] = system: ryegrass, It. (Italian ryegrass, Lolium multiflorum); test: as above; settings: 0 is no effect, 100 is complete control
Outline: as §2

[7] = system: pigweed (Amaranthus retroflexus); test: as above; settings: 0 is no effect, 100 is complete control
Outline: as §2

[8] = system: foxtail, giant (giant foxtail, Setaria faberii); test: as above; settings: 0 is no effect, 100 is complete control
Outline: as §2

[9] = system: ragweed (common ragweed, Ambrosia elatior); test: as above; settings: 0 is no effect, 100 is complete control
Outline: as §2

[10] = system: wheat (Triticum aestivum); test: Test A postemergence application, visual injury rating; settings: 0 to 100 scale, 0 no effect, 100 complete control
Outline: as §2

[11] = system: galium (catchweed bedstraw, Galium aparine); test: as above; settings: 0 to 100 scale, 0 no effect, 100 complete control
Outline: as §2

[12] = system: barnyardgrass (Echinochloa crus-galli); test: as above; settings: 0 to 100 scale, 0 no effect, 100 complete control
Outline: as §2

kochia (Kochia scoparia) [13] = test: as above; settings: 0 to 100 scale, 0 no effect, 100 complete control
Outline: as §2

[14] = system: ryegrass, It. (Italian ryegrass, Lolium multiflorum); test: as above; settings: 0 to 100 scale, 0 no effect, 100 complete control
Outline: as §2

[15] = system: blackgrass (Alopecurus myosuroides); test: as above; settings: 0 to 100 scale, 0 no effect, 100 complete control
Outline: as §2

[16] = system: pigweed (Amaranthus retroflexus); test: as above; settings: 0 to 100 scale, 0 no effect, 100 complete control
Outline: as §2

corn (Zea mays) = test: as above; settings: 0 to 100 scale, 0 no effect, 100 complete control
Outline: as §2

[17] = system: foxtail, giant (giant foxtail, Setaria faberii); test: as above; settings: 0 to 100 scale, 0 no effect, 100 complete control
Outline: as §2

[18] = system: ragweed (common ragweed, Ambrosia elatior); test: as above; settings: 0 to 100 scale, 0 no effect, 100 complete control
Outline: as §2

| Structure (SMILES) | Sedge, Umbrella plant response rating (0 to 100 scale, 0 is no effect, 100 is complete control) [1] | Ducksalad plant response rating (0 to 100 scale, 0 is no effect, 100 is complete control) [2] | Barnyardgrass plant response rating (0 to 100 scale, 0 is no effect, 100 is complete control) [3] | Rice plant response rating (0 to 100 scale, 0 is no effect, 100 is complete control) (rice (Oryza sativa)) | Plant response rating (0 to 100 scale), Barnyardgrass ([4]; 31 g ai/ha) | Plant response rating (0 to 100 scale), Barnyardgrass ([4]; 125 g ai/ha) | Plant response rating (0 to 100 scale), Kochia (kochia (Kochia scoparia) [5]; 31 g ai/ha) | Plant response rating (0 to 100 scale), Kochia (kochia (Kochia scoparia) [5]; 125 g ai/ha) | Plant response rating (0 to 100 scale), Ryegrass, It. ([6]; 31 g ai/ha) | Plant response rating (0 to 100 scale), Ryegrass, It. ([6]; 125 g ai/ha) | Plant response rating (0 to 100 scale), Pigweed ([7]; 31 g ai/ha) | Plant response rating (0 to 100 scale), Pigweed ([7]; 125 g ai/ha) | Plant response rating (0 to 100 scale), Foxtail, Giant ([8]; 31 g ai/ha) | Plant response rating (0 to 100 scale), Foxtail, Giant ([8]; 125 g ai/ha) | Plant response rating (0 to 100 scale), Ragweed ([9]; 31 g ai/ha) | Plant response rating (0 to 100 scale), Ragweed ([9]; 125 g ai/ha) | Wheat plant response rating ([10]; 31 g ai/ha) | Wheat plant response rating ([10]; 125 g ai/ha) | Galium plant response rating ([11]; 31 g ai/ha) | Galium plant response rating ([11]; 125 g ai/ha) | other results |
| --- | --- | --- | --- | --- | --- | --- | --- | --- | --- | --- | --- | --- | --- | --- | --- | --- | --- | --- | --- | --- | --- |
| Cc1cc2c(Cl)ccc(-c3c(O)c(C)nn(C)c3=O)c2o1 [Compound 43] | 35 | 40 | 0 | 0 | 10 | 30 | 0 | 0 | 60 | 80 | 0 | 0 | 10 | 40 | 30 | 30 | 0 | 10 | 70 | 80 | Barnyardgrass plant response rating ([12]; 31 g ai/ha): 0; Barnyardgrass plant response rating ([12]; 125 g ai/ha): 10; Kochia plant response rating (kochia (Kochia scoparia) [13]; 31 g ai/ha): 0; Kochia plant response rating (kochia (Kochia scoparia) [13]; 125 g ai/ha): 0; Ryegrass, It. plant response rating ([14]; 31 g ai/ha): 50; Ryegrass, It. plant response rating ([14]; 125 g ai/ha): 80; Blackgrass plant response rating ([15]; 31 g ai/ha): 0; Blackgrass plant response rating ([15]; 125 g ai/ha): 50; Pigweed plant response rating ([16]; 31 g ai/ha): 0; Pigweed plant response rating ([16]; 125 g ai/ha): 0; Corn plant response rating (corn (Zea mays); 31 g ai/ha): 0; Corn plant response rating (corn (Zea mays); 125 g ai/ha): 0; Foxtail, Giant plant response rating ([17]; 31 g ai/ha): 0; Foxtail, Giant plant response rating ([17]; 125 g ai/ha): 0; Ragweed plant response rating ([18]; 31 g ai/ha): 0; Ragweed plant response rating ([18]; 125 g ai/ha): 20 |
| Cc1nn(C)c(=O)c(-c2ccc(Cl)c3sc(Br)cc23)c1O [Compound 37] | 0 | 0 | 0 | 0 | 0 | 0 | 0 | 0 | 0 | 0 | 0 | 0 | 0 | 0 | 0 | 50 | 0 | 0 | 20 | 40 | Barnyardgrass plant response rating ([12]; 31 g ai/ha): 0; Barnyardgrass plant response rating ([12]; 125 g ai/ha): 0; Kochia plant response rating (kochia (Kochia scoparia) [13]; 31 g ai/ha): 0; Kochia plant response rating (kochia (Kochia scoparia) [13]; 125 g ai/ha): 10; Ryegrass, It. plant response rating ([14]; 31 g ai/ha): 0; Ryegrass, It. plant response rating ([14]; 125 g ai/ha): 0; Blackgrass plant response rating ([15]; 31 g ai/ha): 0; Blackgrass plant response rating ([15]; 125 g ai/ha): 0; Pigweed plant response rating ([16]; 31 g ai/ha): 0; Pigweed plant response rating ([16]; 125 g ai/ha): 0; Corn plant response rating (corn (Zea mays); 31 g ai/ha): 0; Corn plant response rating (corn (Zea mays); 125 g ai/ha): 0; Foxtail, Giant plant response rating ([17]; 31 g ai/ha): 0; Foxtail, Giant plant response rating ([17]; 125 g ai/ha): 0; Ragweed plant response rating ([18]; 31 g ai/ha): 0; Ragweed plant response rating ([18]; 125 g ai/ha): 0 |
